Source: BindingDB's records for patent US20250248955 (Longivitron (Suzhou) Biotechnology Co., 2025)

target: T1, Acetyl-CoA acetyltransferase, mitochondrial (Homo sapiens, UniProt P24752); assay: Experimental Method Screening Method of ACAT1 Small Molecule Inhibitors
T1 sequence (P24752 whole entry): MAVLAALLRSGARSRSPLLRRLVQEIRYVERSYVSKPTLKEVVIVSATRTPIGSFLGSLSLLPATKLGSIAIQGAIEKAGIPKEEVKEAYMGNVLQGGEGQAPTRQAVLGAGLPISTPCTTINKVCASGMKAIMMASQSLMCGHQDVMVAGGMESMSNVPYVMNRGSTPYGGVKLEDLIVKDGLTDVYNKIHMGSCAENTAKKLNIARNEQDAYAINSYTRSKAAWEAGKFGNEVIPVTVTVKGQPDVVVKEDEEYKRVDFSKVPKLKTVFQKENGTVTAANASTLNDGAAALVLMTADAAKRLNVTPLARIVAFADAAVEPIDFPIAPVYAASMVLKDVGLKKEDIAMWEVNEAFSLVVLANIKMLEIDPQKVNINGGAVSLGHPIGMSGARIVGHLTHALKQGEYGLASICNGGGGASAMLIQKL
Method: ACAT1 can catalyze two molecules of acetyl coenzyme A to reversibly form acetoacetyl coenzyme A. Its activity was measured through the reaction between ACAT1-catalyzed substrate acetoacetyl-coenzyme A and coenzyme A, from which the product acetyl-coenzyme A is produced. Since acetoacetyl-coenzyme A is specifically absorbed in a specific spectrum, the impact on the enzyme activity of ACAT1 can be reflected through the detection of an increase or decrease of absorption in a specific spectrum.ACAT1 recombinant proteins were expressed and purified by Escherichia coli, and the concentration of ACAT1 recombinant proteins obtained was 1 mg/mL. The buffers adopted for ACAT1 small molecule inhibitor screening were 50 mM Tris-HCl (pH 8.1), 20 mM MgCl2, and 40 mM KCl. In 200 μL of enzyme catalytic system, 1 μL of ACAT1 recombinant proteins, the substrate […] whose final concentration was changed from 25 μM to 100 μM through a CPM probe, and small molecule inhibitors at different concentrations were added, respectively.

**Q.** Which IC50 does the source give for COc1ccc([C@H](O)[C@@H](C)Oc2ccc(OC(=O)/C=C/c3ccc(O)c(O)c3)cc2OC)cc1OC [US20250248955, Compound M2] here?
**A.** The IC50 was over 100 µM.

**Q.** Which IC50 does the source give for COc1ccc([C@@H](O)[C@@H](C)Oc2ccc(OC(=O)/C=C/c3ccc(O)c(O)c3)cc2OC)cc1OC [US20250248955, Compound M3] here?
**A.** Its IC50 is over 100 µM.

**Q.** O=C(/C=C/c1ccc(O)c(O)c1)Nc1ccc(OCCc2ccccc2)cc1 [US20250248955, Compound M4] was tested. Which IC50 did it give?
**A.** The IC50 was 112 µM.

**Q.** How did the IC50 turn out when O=C(/C=C/c1ccc(O)c(O)c1)Nc1ccc(OCCc2ccc(F)cc2)cc1 [US20250248955, Compound M6] was run?
**A.** The IC50 was 134 µM.

**Q.** With O=C(/C=C/c1ccc(O)c(O)c1)Nc1ccc(OCCc2ccc(O)cc2)cc1 [US20250248955, Compound M8] as the compound, how does the IC50 read?
**A.** The IC50 was 114 µM.

**Q.** How did the IC50 turn out when COCOc1ccc(/C=C/C(=O)Nc2ccc(OCCc3ccccc3)cc2)cc1OCOC [US20250248955, Compound M11] was run?
**A.** The IC50 was 136 µM.

**Q.** For COCOc1ccc(/C=C/C(=O)Nc2ccc(OCCc3ccc(F)cc3)cc2)cc1OCOC [US20250248955, Compound M13], which IC50 is on record?
**A.** The IC50 was 152 µM.

**Q.** How did the IC50 turn out when COCOc1ccc(/C=C/C(=O)Nc2ccc(OCCc3ccc(C)cc3)cc2)cc1OCOC [US20250248955, Compound M14] was run?
**A.** The IC50 was 111 µM.

**Q.** COCOc1ccc(/C=C/C(=O)Nc2ccc(OCCc3ccc(O)cc3)cc2)cc1OCOC [US20250248955, Compound M15] was tested. Which IC50 did it give?
**A.** The IC50 was 312 µM.

**Q.** For COCOc1ccc(/C=C/C(=O)Nc2ccc(OCCc3ccc(OC)c(OC)c3)cc2)cc1OCOC [US20250248955, Compound M16], which IC50 is on record?
**A.** The IC50 was 172 µM.
